We go through 15 molecules from patent US11926626B2, “Heterocyclic GLP-1 agonists” (Gasherbrum Bio, Inc., priority 2020, dated 2024).

Each structure is given as a SMILES string.

For the assay, the target named is GLP-1 Receptor (Homo sapiens, UniProt P43220). Briefly: GLP-1R agonist cAMP stimulation assay (HEK293/GLP1R/CRE-Luc cells, HTRF cAMP). In kind it is cell-based. The settings on record: HEK293/CRE-Luc cells stably expressing GLP-1 Receptor; 30 min, 37° C. On the technique in general: Time-resolved FRET reads energy transfer from a long-lived donor to a nearby acceptor.
GLP-1 Receptor, sequence (P43220 24-463): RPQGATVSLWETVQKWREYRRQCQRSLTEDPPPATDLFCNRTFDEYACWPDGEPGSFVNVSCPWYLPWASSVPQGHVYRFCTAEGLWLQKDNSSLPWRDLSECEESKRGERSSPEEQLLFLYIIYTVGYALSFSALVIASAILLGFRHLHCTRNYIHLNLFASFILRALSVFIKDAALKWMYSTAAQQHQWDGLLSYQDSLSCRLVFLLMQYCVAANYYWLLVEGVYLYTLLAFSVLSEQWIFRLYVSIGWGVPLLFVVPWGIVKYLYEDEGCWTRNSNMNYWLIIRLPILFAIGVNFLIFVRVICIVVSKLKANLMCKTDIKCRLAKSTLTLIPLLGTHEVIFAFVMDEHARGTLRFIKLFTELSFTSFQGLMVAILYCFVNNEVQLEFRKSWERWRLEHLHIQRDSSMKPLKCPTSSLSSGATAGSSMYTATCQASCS
As to `O=C(O)c1ccc2nc(C[C@H]3CC[C@H](Oc4nc(Cc5ccc(Cl)cc5)ncc4F)CC3)n(C[C@@H]3CCO3)c2n1` [Compound 188a, 3-{[(2S)-oxetan-2-yl]methyl}-2-{[trans-4-({2-[(4-chlorophenyl)methyl]-5-fluoropyrimidin-4-yl}oxy)cyclohexyl]methyl}-3H-imidazo[4,5-b]pyridine-5-carboxylic acid], the “GLP1R cAMP Stimulation DR: pEC50” value is reported as 10.3. In the case of `COC(C)Cn1c(CN2CCC(Oc3ccnc(Cc4ccc(Cl)cc4)n3)CC2)nc2ccc(C(=O)O)nc21` (stereo not drawn) [Compound 195, 2-((4-((2-(4-chlorobenzyl)pyrimidin-4-yl)oxy)piperidin-1-yl)methyl)-3-(2-methoxypropyl)-3H-imidazo[4,5-b]pyridine-5-carboxylic acid], the “GLP1R cAMP Stimulation DR: pEC50” value is 9.2. The value for `O=C(O)c1ccc2nc(Cc3ccc(Oc4ccnc(Cc5ccc(Cl)cc5)n4)cc3)n(C[C@@H]3CCO3)c2n1` [Compound 186a, 2-{[4-({2-[(4-chlorophenyl)methyl]pyrimidin-4-yl}oxy)phenyl]methyl}-3-{[(2S)-oxetan-2-yl]methyl}-3H-imidazo[4,5-b]pyridine-5-carboxylic acid] was 9.2; that for `O=C(O)c1ccc2nc(C[C@H]3CC[C@H](Oc4cccc(Cc5ccc(Cl)cc5F)n4)CC3)n(C[C@@H]3CCO3)c2n1` [Compound 174b, 3-{[(2S)-oxetan-2-yl]methyl}-2-{[trans-4-({6-[(4-chloro-2-fluorophenyl)methyl]pyridin-2-yl}oxy)cyclohexyl]methyl}-3H-imidazo[4,5-b]pyridine-5-carboxylic acid] was 9.9. The value for `O=C(O)c1ccc2nc(CN3CCC(Oc4cccc(Cc5ccc(C6CC6)cc5)n4)CC3)n(C[C@@H]3CCO3)c2n1` [Compound 146a, 2-{[4-({6-[(4-cyclopropylphenyl)methyl]pyridin-2-yl}oxy)piperidin-1-yl]methyl}-3-{[(2S)-oxetan-2-yl]methyl}-3H-imidazo[4,5-b]pyridine-5-carboxylic acid] was 9.2; that for `O=C(O)c1ccc2nc(C[C@H]3CC[C@H](Oc4ccnc(Cc5ccc(Cl)cc5)n4)CC3)n(C[C@@H]3CCO3)c2c1` [Compound 176a, 1-{[(2S)-oxetan-2-yl]methyl}-2-{[trans-4-({2-[(4-chlorophenyl)methyl]pyrimidin-4-yl}oxy)cyclohexyl]methyl}-1H-1,3-benzodiazole-6-carboxylic acid] was 9.4. In the case of `O=C(O)c1ccc2nc(CN3CCC(Oc4cccc(CN5Cc6ccccc6C5=O)n4)CC3)n(C[C@@H]3CCO3)c2n1` [Compound 148a, 3-{[(2S)-oxetan-2-yl]methyl}-2-{[4-({6-[(1-oxo-2,3-dihydro-1H-isoindol-2-yl)methyl]pyridin-2-yl}oxy)piperidin-1-yl]methyl}-3H-imidazo[4,5-b]pyridine-5-carboxylic acid] it was 8.4.

As to `O=C(O)c1ccc2nc(CN3CC4CC(Oc5ccnc(Cc6ccc(Cl)cc6)n5)CC4C3)n(C[C@@H]3CCO3)c2n1` (stereo partly drawn) [Compound 201a, 2-{[5-({2-[(4-chlorophenyl)methyl]pyrimidin-4-yl}oxy)-octahydrocyclopenta[c]pyrrol-2-yl]methyl}-3-{[(2S)-oxetan-2-yl]methyl}-3H-imidazo[4,5-b]pyridine-5-carboxylic acid], the “GLP1R cAMP Stimulation DR: pEC50” value is recorded as 6.4.

Regarding `Cc1cn(Cc2ccc(Cl)cc2F)nc1OC1CCN(Cc2nc3ccc(C(=O)O)nc3n2C[C@@H]2CCO2)CC1` [Compound 133a, 2-{[4-({1-[(4-chloro-2-fluorophenyl)methyl]-4-methyl-1H-pyrazol-3-yl}oxy)piperidin-1-yl]methyl}-3-{[(2S)-oxetan-2-yl]methyl}-3H-imidazo[4,5-b]pyridine-5-carboxylic acid], the “GLP1R cAMP Stimulation DR: pEC50” value worked out at 8.6. As to `O=C(O)c1ccc2nc(CN3CCC(Oc4nc(Cc5ccc(Cl)cc5F)ccc4F)CC3)n(C[C@@H]3CCO3)c2n1` [Compound 111a, 2-{[4-({6-[(4-chloro-2-fluorophenyl)methyl]-3-fluoropyridin-2-yl}oxy)piperidin-1-yl]methyl}-3-{[(2S)-oxetan-2-yl]methyl}-3H-imidazo[4,5-b]pyridine-5-carboxylic acid], the “GLP1R cAMP Stimulation DR: pEC50” value was 9.5. Regarding `CCOCCn1c(CN2CCC(Oc3ccnc(Cc4ccc(Cl)cc4)n3)CC2)nc2ccc(C(=O)O)nc21` [Compound 194, 2-((4-((2-(4-chlorobenzyl)pyrimidin-4-yl)oxy)piperidin-1-yl)methyl)-3-(2-ethoxyethyl)-3H-imidazo[4,5-b]pyridine-5-carboxylic acid], the “GLP1R cAMP Stimulation DR: pEC50” value is listed as 8.5. Regarding `N#Cc1ccc(Cc2cccc(OC3CCN(Cc4nc5ccc(C(=O)O)cc5n4C[C@@H]4CCO4)CC3)n2)c(F)c1` [Compound 135a, 2-{[4-({6-[(4-cyano-2-fluorophenyl)methyl]pyridin-2-yl}oxy)piperidin-1-yl]methyl}-1-{[(2S)-oxetan-2-yl]methyl}-1H-1,3-benzodiazole-6-carboxylic acid], the “GLP1R cAMP Stimulation DR: pEC50” value amounted to 8.7.

With `O=C(O)c1ccc2nc(CN3CCC(Oc4ccnc(Cc5ccc(Cl)cc5)n4)CC3)n(C[C@@H]3CCO3)c2n1` [Compound 152a, 2-{[4-({2-[(4-chlorophenyl)methyl]pyrimidin-4-yl}oxy)piperidin-1-yl]methyl}-3-{[(2S)-oxetan-2-yl]methyl}-3H-imidazo[4,5-b]pyridine-5-carboxylic acid], the “GLP1R cAMP Stimulation DR: pEC50” value was found to be 10.4. Regarding `O=C(O)c1ccc2nc(C[C@H]3CC[C@@H](Oc4cccc(Cc5ccc(Cl)cc5F)n4)CC3)n(C[C@@H]3CCO3)c2n1` [Compound 174a, 3-{[(2S)-oxetan-2-yl]methyl}-2-{[cis-4-({6-[(4-chloro-2-fluorophenyl)methyl]pyridin-2-yl}oxy)cyclohexyl]methyl}-3H-imidazo[4,5-b]pyridine-5-carboxylic acid], the “GLP1R cAMP Stimulation DR: pEC50” value came to 7.5. In the case of `O=C(O)c1ccc2nc(CN3CCC(Oc4nc(Cc5ccc(Cl)cc5F)ccc4Cl)CC3)n(C[C@@H]3CCO3)c2n1` [Compound 137a, 2-{[4-({3-chloro-6-[(4-chloro-2-fluorophenyl)methyl]pyridin-2-yl}oxy)piperidin-1-yl]methyl}-3-{[(2S)-oxetan-2-yl]methyl}-3H-imidazo[4,5-b]pyridine-5-carboxylic acid] it was 7.3.
